Laboratory results as given in patent US4690938A, “Anti-hypertensive agents” (University of Miami, priority 1979, dated 1987).

Columns and labels:
[1] = system: mean arterial blood pressure response to angiotensin I; experiment: Intravenous effectiveness: blood pressure response to angiotensin I in anesthetized rats; type: in vivo, rat; conditions: i.v.; angiotensin I 400 ng/kg
Protocol: Rats (210-290 g body weight) were fasted overnight and then anesthetized with intraperitoneal pentobarbital, 50-60 mg/kg. Tracheostomy was performed and the animals were ventilated mechanically. A cannula was inserted into a femoral vein for injection of angiotensin I, and a second cannula was inserted into a common carotid artery for direct measurement of arterial blood pressure. Heparin, 1,000 units, was injected via the femoral vein to prevent coagulation. Blood pressure was measured with a pressure transducer connected to a polygraph. The rats were injected with […] of angiotensin I in 20 μl of 0.9 g % NaCl; an amount of angiotensin I sufficient to raise mean arterial blood pressure by 38 mm Hg. After the responsiveness of a given rat to angiotensin I was established, the named compound at 20 μmol/kg (drug dissolved in 0.15 ml of H2 O plus 10 μl of 1N NaHCO3), was given via a stomach tube. At timed intervals, the effects of 400 ng/kg of angiotensin I on mean arterial blood pressure were tested. Results are shown below:
Intravenous Effectiveness of N^α -[3-(N^α -benzoylglycylthio)-2-D-methylpropanoyl)-L-proline. Anesthetized rats were prepared as described in Example 20. The animals were administered the named compound via a femoral vein in 15 μl of 0.01 N sodium bicarbonate, after the control response to 400 ng/kg of angiotensin I was measured. […]

[2] = target: T1, angiotensin converting enzyme (human urinary ACE) (Homo sapiens, UniProt P12821); experiment: ACE activity assay: hydrolysis of Benzoyl-GlyHisLeu by ACE purified from human urine; type: biochemical; conditions: Benzoyl-GlyHisLeu 1×10^-4 M, pH 8.0, 37° C, read-out: I50
T1 construct: ACE purified from human urine; from tissue; host or cells: human urine
Source text: The role of ACE in the pathogenesis of hypertension has prompted a search for inhibitors of the enzyme that could act as antihypertensive drugs. See for example U.S. Pat. Nos. 3,891,616, 3,947,575, 4,052,511 and 4,053,651. […]. No. 4,046,889 to Ondetti et al., issued Sept. 6, 1977, and in scientific articles by Cushman, D. W. et al., Biochemistry 16, 5484 (1977), and by Ondetti, M. et al., Science 196, 441 (1977). […]. These factors include the source of enzyme, its purity, the substrate used and its concentration, and the composition of the assay buffer. All I50 data reported herein have been performed with the same assay system and same enzyme (human urinary ACE) and with an approximately 1/2 Km level of substrate and are therefore internally consistent. Discrepancies with data obtained by other workers may be observed. Indeed such discrepancies do exist in the literature, for unknown reasons. See, for example, the I50 values for BPP9a reported by Cushman, D. W., et al., Experientia 29, 1032 (1973) and by Dorer, F. E., et al., Biochim.Biophys.Acta 429, 220 (1976).
For most experiments described herein, the enzyme was assayed in 0.05M Hepes buffer, pH 8.0 containing 0.1M NaCl and 0.75M Na2 SO4. […]
The inhibitory potency of N^α-[ 3-(N^α -benzoylglycylthio)-2-D-L-proline in vitro was measured in the assay described in Example 1. […]

[3] = system: mean arterial blood pressure response to angiotensin I; experiment: Oral effectiveness: blood pressure response to angiotensin I in anesthetized rats; type: in vivo, rat; conditions: angiotensin I 400 ng/ml in 20 μl of 0.9 g % NaCl (table: 400 ng/kg); control response before drug
Protocol: Rats (210-290 g body weight) were fasted overnight and then anesthetized with intraperitoneal pentobarbital, 50-60 mg/kg. Tracheostomy was performed and the animals were ventilated mechanically. A cannula was inserted into a femoral vein for injection of angiotensin I, and a second cannula was inserted into a common carotid artery for direct measurement of arterial blood pressure. Heparin, 1,000 units, was injected via the femoral vein to prevent coagulation. Blood pressure was measured with a pressure transducer connected to a polygraph. The rats were injected with 400 ng/ml of angiotensin I in 20 μl of 0.9 g % NaCl; an amount of angiotensin I sufficient to raise mean arterial blood pressure by 38 mm Hg. After the responsiveness of a given rat to angiotensin I was established, the named compound at 20 μmol/kg (drug dissolved in 0.15 ml of H2 O plus 10 μl of 1N NaHCO3), was given via a stomach tube. At timed intervals, the effects of 400 ng/kg of angiotensin I on mean arterial blood pressure were tested.

T1 sequence (P12821 30-1232 limits assumed): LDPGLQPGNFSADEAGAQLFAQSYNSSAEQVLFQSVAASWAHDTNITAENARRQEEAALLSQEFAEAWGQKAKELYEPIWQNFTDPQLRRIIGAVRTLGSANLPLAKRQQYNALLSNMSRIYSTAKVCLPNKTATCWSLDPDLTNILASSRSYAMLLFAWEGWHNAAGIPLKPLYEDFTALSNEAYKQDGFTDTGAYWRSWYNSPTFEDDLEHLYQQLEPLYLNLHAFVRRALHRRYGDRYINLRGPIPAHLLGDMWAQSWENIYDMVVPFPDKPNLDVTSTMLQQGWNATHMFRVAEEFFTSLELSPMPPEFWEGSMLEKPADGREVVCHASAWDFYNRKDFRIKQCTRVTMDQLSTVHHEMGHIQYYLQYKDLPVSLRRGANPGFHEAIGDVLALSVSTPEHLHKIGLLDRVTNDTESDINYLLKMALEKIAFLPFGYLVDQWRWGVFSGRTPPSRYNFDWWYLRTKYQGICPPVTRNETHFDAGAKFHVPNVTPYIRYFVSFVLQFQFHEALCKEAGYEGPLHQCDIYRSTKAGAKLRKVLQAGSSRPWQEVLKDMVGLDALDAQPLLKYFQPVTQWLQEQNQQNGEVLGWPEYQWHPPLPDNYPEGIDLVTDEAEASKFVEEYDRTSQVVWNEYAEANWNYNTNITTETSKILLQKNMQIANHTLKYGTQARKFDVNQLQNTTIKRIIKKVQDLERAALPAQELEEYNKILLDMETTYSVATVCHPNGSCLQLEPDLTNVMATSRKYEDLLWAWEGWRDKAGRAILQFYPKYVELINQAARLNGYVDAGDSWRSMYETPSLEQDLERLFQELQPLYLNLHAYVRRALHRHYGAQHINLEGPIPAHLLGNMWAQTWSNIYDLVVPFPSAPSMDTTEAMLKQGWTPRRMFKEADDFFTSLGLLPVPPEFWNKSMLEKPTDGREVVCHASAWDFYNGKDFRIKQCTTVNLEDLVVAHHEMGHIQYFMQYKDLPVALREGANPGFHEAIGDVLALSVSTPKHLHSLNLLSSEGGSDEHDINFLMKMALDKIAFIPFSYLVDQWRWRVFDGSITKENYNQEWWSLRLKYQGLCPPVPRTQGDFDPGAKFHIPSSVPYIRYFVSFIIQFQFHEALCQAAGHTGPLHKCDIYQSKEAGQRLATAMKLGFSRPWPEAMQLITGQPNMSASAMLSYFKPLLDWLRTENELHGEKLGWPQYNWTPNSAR

| IC50 [2] | Compound | Blood pressure response to angiotensin I after intravenous administration (in words) [1] | Increase of mean arterial blood pressure by angiotensin I [3] |
| --- | --- | --- | --- |
| 7.5 nM | C[C@H](CSC(=O)CNC(=O)c1ccccc1)C(=O)N1CCC[C@H]1C(=O)O [Example 13, N^α -[3-(N^Δ -benzoylglycylthio)-2-D-methylpropanoyl]-L-proline] | rapid decrease of blood pressure response to angiotensin I, 400 ng/kg followed by a gradual rise to the pretreatment level of responsiveness |  |
|  | angiotensin I: decapeptide angiotensin I, having the sequence AspArgValTyrlleHisProPheHisLeu (DRVYIHPFHL; Angiotensin-1; UniProt P01019 25-34, looked up) |  | 38 mm Hg |
